The text below walks through data of US20080039383A1, “Methods and compositions for inhibiting ER-stress induced cholesterol/triglyceride accumulation” (HAMILTON CIVIC HOSPITAL RESEARCH DEVELOPMENT INC., priority 1999, published 2008).

“Also recorded” adds a separate entry of the source.

Data set [1] deals with SREBP, HMG-CoA reductase, IPP isomerase (IPPI) and FPP synthase mRNA. Kind of data set: Northern blot analysis of cholesterol/triglyceride biosynthesis and uptake gene mRNA in cultured human cells. It is filed as cell-based. Conditions: for expression of cholesterol biosynthetic enzymes (Northern analysis): HUVEC and HepG2 cells; for steady-state mRNA levels of IPPI (IPP isomerase) / steady-state mRNA levels of IPPI: 4 hours; for steady-state mRNA levels of IPPI (IPP isomerase): homocysteine 5 mM, DTT, β-mercaptoethanol 5 mM, tunicamycin 10 μg/ml, A23187 10 μM; for steady-state mRNA levels of IPPI: 5 mM amino acid or 2 mM DTT; for IPPI mRNA levels: 0-18 hours. As to the method: (§1) Cell culture and treatment conditions. Primary human umbilical vein endothelial cells (HUVEC) were isolated by collagenase treatment of human umbilical veins (Jaffe, E. A, 1973) and cultured in EC medium (M199 medium, 20 μg/ml endothelial cell growth factor, 90 μg/ml porcine intestinal heparin, 100 μg/ml penicillin and 100 μg/ml streptomycin) containing 20% fetal bovine serum (Hyclone; Logan, Utah) in a humidified incubator at 37° C. with 5% CO2. Cells from passages 2-4 were used in these studies. Human aortic smooth muscle cells (HASMC) were purchased from Cascade Biologicals (Portland, Oreg.) and cultured in M231 media (Cascade Biologicals) containing smooth muscle cell growth supplement (Cascade Biologicals). The human hepatocarcinoma cell line, HepG2, was obtained from the American Type Culture Collection (ATCC; Rockville, Md.) and cultured in A-DMEM containing 10% fetal bovine serum. DL-homocysteine, L-methionine, DL-cysteine, glycine, DL-dithiothreitol ([…]), tunicamycin, A23187 and β-mercaptoethanol were purchased from Sigma (St. Louis, Mo.). These compounds were prepared fresh in culture medium, sterilized by filtration and added to the cell cultures.
(§2) Preparation of Total RNA. […] .

The subject of data set [2] is GRP78/BiP and GADD153 mRNA. Kind of data set: Northern blot analysis of ER stress response genes in HepG2 cells. Conditions: 4 h, 5 mM amino acids, 2.5 mM DTT, 10 μg/ml tunicamycin. It is filed as cell-based, human. As to the method: as §1, §2
For another data set, the system named is cultured cells. To be noted: cited from earlier work; for overall cell number or viability: extracellular concentrations up to 5 mM.
Data set [3] relates to HepG2 cells. The data set can be described thus: Intracellular total cholesterol in HepG2 cells. To be noted: HepG2, 0-5 mM, 24-48 h. It is filed as cell-based, human. As for the experimental part: (§3) Lipids are extracted with hexane:isopropanol (3:2), dried and resuspended in hexane. Colorimetric cholesterol assays is carried out using the Sigma Diagnostics Cholesterol Reagent (Sigma) to determine total cholesterol levels. Total plasma cholesterol are measured using the same assay but without the lipid extraction step.
as §1
(§4) Total cholesterol and triglyceride levels.

The test system of data set [4] is HASMC. Kind of data set: Intracellular total cholesterol in HASMC. Conditions: 0-5 mM, 24-48 h. It counts as cell-based, human. As to the method: as §3, §1, §4
For the next data set, the system named is GRP78/BiP and GRP94. The data set can be described thus: Immunoblot with anti-KDEL mAb in HepG2 cells. It counts as cell-based, human. Conditions: HepG2, 5 mM homocysteine, 8, 18 and 36 h. As to the method:
as §1
(§5) Immunoblot analysis. The anti-KDEL mAb (SPA-827), which recognizes both GRP78/BiP and GRP94, was purchased from StressGen Biotechnologies (Victoria, BC). […]
(In general: In western blotting, separated proteins are transferred to a membrane and probed.)

The test system of a further data set is SREBP-2. The data set can be described thus: Immunoblot of SREBP-2 forms in HepG2 cells. It is filed as cell-based, human. Conditions: HepG2 cells (data not shown). As for the experimental part:
as §1, §5

The subject of data set [5] is HepG2 cells. Kind of data set: BODIPY FL LDL binding and uptake in HepG2 cells. It is filed as cell-based, human. To be noted: 5 mM homocysteine 8 hr. As to the method: as §1
(§6) Uptake of BODIPY FL LDL and image analysis. […] Images were subsequently captured and analyzed using Northern Exposure image analysis/archival software (Mississauga, ON).

The test system of a further data set is SREBP-1. The data set can be described thus: Immunoblot of SREBP-1 precursor and mature forms in HepG2 cells. It counts as cell-based, human. To be noted: 5 mM homocysteine. As to the method: as §1, §5
Data set [6] relates to HASMC. Kind of data set: BODIPY FL LDL binding and uptake in HASMC. It is filed as cell-based, human. As to the method: as §1, §6
Data set [7] concerns HUVEC. The data set can be described thus: Intracellular total cholesterol in HUVEC. It counts as cell-based, human. To be noted: 0-5 mM, 24-48 h. As to the method: as §3
as §1, with “These compounds were prepared fresh in culture medium, sterilized by filtration and added to the cell cultures.” left out

Data set [8] has as its system HUVEC. Kind of data set: BODIPY FL LDL / AcLDL binding and uptake in HUVEC. It counts as cell-based, human. As for the experimental part: as §1, §6
Setting [9] is: HepG2 cells, 5 mM homocysteine, 0-18 h.

`CNc1ccc2oc(C[C@H]3O[C@@]4(CC[C@H]3C)O[C@H]([C@H](C)C(=O)c3ccc[nH]3)[C@H](C)C[C@H]4C)nc2c1C(=O)O` [A23187]: in data set [1], the “expression of cholesterol biosynthetic enzymes (Northern analysis)” value (shortened to “expression … (Northern analysis)”) is “induce the cholesterol biosynthetic pathway in a manner similar to that of homocysteine”. For the same compound, the “steady-state mRNA levels of IPPI (IPP isomerase)” value in data set [1] (HepG2 cells) is given as “induced the expression of IPP isomerase; also recorded: increase IPPI mRNA levels”.
Regarding tunicamycin, the “steady-state mRNA levels of GRP78/BiP and GADD153” value in [2] was “also induced the steady-state mRNA levels of GRP78/BiP and GADD153”. Besides, the “expression … (Northern analysis)” value in [1] is “induce the cholesterol biosynthetic pathway in a manner similar to that of homocysteine”. Besides, the “steady-state mRNA levels of IPPI (IPP isomerase)” value in data set [1] (HepG2 cells) is on record as “induced the expression of IPP isomerase; also recorded: increase IPPI mRNA levels”.
In the case of `NCC(=O)O` [glycine], the “steady-state mRNA levels of GRP78/BiP and GADD153” value in data set [2] is reported as “failed to induce the expression of these ER stress response genes”. Also, the “steady-state mRNA levels of IPPI” value in data set [1] (HUVEC) was “only homocysteine and DTT significantly increased IPPI mRNA levels”.
Turning to `N[C@@H](CCO)C(=O)O` [homoserine], in [2], the “steady-state mRNA levels of GRP78/BiP and GADD153” value is reported as “failed to induce the expression of these ER stress response genes”. Moreover, the “steady-state mRNA levels of IPPI” value in data set [1] (HUVEC) was “only homocysteine and DTT significantly increased IPPI mRNA levels”.
Take `OCCS` [β-mercaptoethanol]: the “steady-state mRNA levels of IPPI (IPP isomerase)” value in data set [1] (HepG2 cells) was “induced the expression of IPP isomerase; also recorded: increase IPPI mRNA levels”.
As for `O[C@H](CS)[C@H](O)CS` (racemic) [DTT, DL-dithiothreitol], in [2], the “steady-state mRNA levels of GRP78/BiP and GADD153” value was “also induced the steady-state mRNA levels of GRP78/BiP and GADD153”. Moreover, the “expression … (Northern analysis)” value in [1] was “induce the cholesterol biosynthetic pathway in a manner similar to that of homocysteine”. For the same compound, the “steady-state mRNA levels of IPPI” value in data set [1] (HUVEC) is reported as “significantly increased IPPI mRNA levels”. Moreover, in [1] (HepG2 cells), the “steady-state mRNA levels of IPPI (IPP isomerase)” value was “induced the expression of IPP isomerase; also recorded: increase IPPI mRNA levels”.
As to `C[C@@H]1C[C@@H]([C@H](O)CC2CC(=O)NC(=O)C2)C(=O)[C@@H](C)C1` [cycloheximide], the “effect on induction of cholesterol/triglyceride genes by homocysteine” value in [1] (data not shown) is on record as “does not block the induction of these genes by homocysteine”.
On to `NC(CS)C(=O)O` (racemic) [cysteine, DL-cysteine], for which the “overall cell number or viability” value with cultured cells was “does not effect cell viability”. The “total cellular cholesterol normalized to protein” value in the data set on HepG2 cells [3] is listed as “but not cysteine, increased cellular cholesterol”; in the data set with HASMC [4], “but not cysteine, increased cellular cholesterol”. For the same compound, the “steady-state mRNA levels of GRP78/BiP and GADD153” value in [2] is reported as “failed to induce the expression of these ER stress response genes”. Moreover, the “expression … (Northern analysis)” value in data set [1] was “no other amino acids, including thiol-containing methionine and cysteine, have significant effects”. Also, the “steady-state mRNA levels of IPPI” value in data set [1] (HUVEC) was “only homocysteine and DTT significantly increased IPPI mRNA levels”.
Turning to `NC(CCS)C(=O)O` (racemic) [homocysteine, DL-homocysteine], the “overall cell number or viability” value with cultured cells is “no effect on overall cell number or viability; also recorded: does not effect cell viability”. In addition, the EC injury result with cultured cells (homocysteine concentrations up to 5 mM) is reported as “do not cause EC injury”. The “total cellular cholesterol normalized to protein” value in the data set on HepG2 cells [3] was “promotes cholesterol accumulation”; with HepG2 cells [3] (listed as Homocysteine) it was “increased cellular cholesterol”; in the data set on HASMC [4] it was “promotes cholesterol accumulation”; with HASMC [4] (listed as Homocysteine), “increased cellular cholesterol”; with HUVEC [7], “no significant change in the total cholesterol concentration; also recorded: unchanged”. The “steady-state mRNA levels of GRP78/BiP and GADD153” value in [2] is “increased steady-state mRNA levels of GRP78/BiP and GADD153”. Moreover, in the data set on GRP78/BiP and GRP94, the “GRP78/BiP and GRP94 protein levels” value was “elevated”. Besides, the “active and precursor forms of SREBP-2” value with SREBP-2 is “also increased”. Also, the “IPPI mRNA levels” value was “significantly increases IPPI mRNA levels” in data set [1] (HASMC, 5 mM homocysteine); “significantly increases IPPI mRNA levels” in data set [1] (HUVEC, 5 mM homocysteine); “significantly increases IPPI mRNA levels” in [1] (HepG2, 5 mM homocysteine). For the same compound, the “expression of cholesterol biosynthetic pathway genes, clusterin and SREBP” value in data set [1] (HUVEC, 1-5 mM homocysteine for as little as 2 hours) is recorded as “enhanced”. For the same compound, the “steady-state mRNA levels of IPPI” value in [1] (HUVEC) was “significantly increased IPPI mRNA levels”. Further, in [1] (HepG2 cells, 5 mM homocysteine, 0, 2, 4, 8 or 18 hours), the “steady-state mRNA levels of SREBP, HMG-CoA reductase and FPP synthase” value was “increased steady-state mRNA levels for all transcripts”. Besides, in data set [1] (setting [9]), the “steady-state mRNA levels of HMG-CoA reductase, IPP isomerase and FPP synthase” value was “increased and peaked between 2 and 4 hr”. Further, in data set [1] (setting [9]), the “steady-state mRNA levels of SREBP-1” value was “increased and peaked between 2 and 4 h”. For the same compound, the “steady-state mRNA levels of IPPI (IPP isomerase)” value in data set [1] (HepG2 cells) is listed as “induced the expression of IPP isomerase; also recorded: increase IPPI mRNA levels”. In addition, the “mRNA levels of acetyl CoA carboxylase, fatty acid synthase and LDL receptor” value in data set [1] (homocysteine treated HepG2 cells (data not shown)) is listed as “also increased”. The LDL binding/uptake result in the data set on HepG2 cells [5] is “may further enhance LDL binding; also recorded: enhanced LDL uptake”. For the same compound, in the data set with SREBP-1, the “levels of active (68 kDa) and precursor (125 kDa) forms of SREBP-1” value is “increased levels of both active (68 kDa) and precursor (125 kDa) forms of SREBP-1”. Also, the LDL uptake result in the data set with HASMC [6] (5 mM homocysteine 8 hr) is recorded as “maintained their ability to endocytose LDL”. Further, the “ability to bind LDL” value in the data set on HASMC [6] (after 18 h of incubation) is reported as “no impairment”. In addition, the “LDL or AcLDL binding” value with HUVEC [8] (4 hour pre-treatment with 5 mM homocysteine) is listed as “no significant effect”. In addition, the “LDL and AcLDL binding/uptake” value in the data set with HUVEC [8] (8 h incubation with 5 mM homocysteine) is “significant decrease in LDL and AcLDL binding; also recorded: significant decrease in LDL uptake; also recorded: similarly down-regulated”.
Consider `CSCC[C@H](N)C(=O)O` [methionine, L-methionine], for which the “steady-state mRNA levels of GRP78/BiP and GADD153” value in data set [2] is listed as “failed to induce the expression of these ER stress response genes”. In addition, the “expression … (Northern analysis)” value in [1] was “no other amino acids, including thiol-containing methionine and cysteine, have significant effects”. For the same compound, in data set [1] (HUVEC), the “steady-state mRNA levels of IPPI” value was “only homocysteine and DTT significantly increased IPPI mRNA levels”.
